Entries after “also recorded” stand apart in the source; their conditions may differ.
Tests used:
[1] = biological target: Y748F mutant of PDE8A catalytic domain (Homo sapiens, UniProt O60658, Y748F); settings: cited from earlier work
CD4+CD25− T cells [2] = test: qRT-PCR of PDE and cytokine genes in anti-CD3 activated CD4+CD25− T cells; assay type: cell-based, mouse; settings: for changes in PDE gene expression: 20 minutes; for changes in PDE gene expression / increase of PDE4B gene expression: IBMX 300 μM; for PDE3B, 7A, and 8A expression: after DP and IBMX treatment
Protocol: Cell Culture. Mouse splenocytes were prepared and cultured as described. (Dong H, Osmanova V, Epstein P M, Brocke S. Phosphodiesterase 8 (PDE8) regulates chemotaxis of activated lymphocytes. Biochem Biophys Res Commun. 2006; 345:713-719) […] were separated from CD4^+CD25^+ Treg cells using a CD4^+CD25^+ Regulatory T Cell Isolation Kit (Miltenyi Biotec, Auburn, Calif.) and activated for 18 hours on plate-bound anti-CD3 mAb (5 μg/ml). Cells of the murine brain endothelium-derived cell line bEnd.3 (ATCC, Manassas, Va.) were seeded into 24-well plates (Costar, Cambridge, Mass.) in DMEM supplemented with 100 U/ml penicillin, […] streptomycin, 2 mM LGlutamine, and 10% fetal bovine serum (all Gibco, Carlsbad, Calif.). bEnd.3 assays were performed on confluent bEnd.3 monolayers.
Quantitative real-time RT-PCR analysis. 10 ng cDNA, or 2 μl cDNA for LCM studies, was amplified by qRT-PCR in a 25 μl reaction using SYBR Green PCR Master Mix (Applied Biosystems, Foster City, Calif.). Primers were designed using Primer Express software v3.0 and primer efficiency verified by slope analysis to be 100%±2.5%. qRT-PCR was performed using an ABI 7500 fast system and data analyzed using the Δ^ct method (SDS software v3.0). Amplicon sizes were approximately 100 bp.
Cell treatment. Confluent bEnd.3 monolayers were incubated with 200 ng/ml TNF-α (Peprotech, Rocky Hill, N.J.) at 37° c. for 2 hours. […] The selective PDE3 and PDE4 inhibitors motapizone and piclamilast were supplied by Drs. Christoff Zitt and Armin Hatzelmann (Altana Pharma, Konstanz, Germany). Con A-activated splenocytes or CD4^+CD25^− T cells activated with plate-bound anti-CD3 mAb were treated with the same reagents for 20, 45, or 90 minutes.
In FIGS. 21A-21B, purified CD4^+CD25^− T cells were activated with plate-bound anti-CD3 mAb for 18 hours followed by incubation with IBMX (300 μM), DP (100 μM) or vehicle (0.1% DMSO) for (A) 20 or (B) 90 minutes. PDE (A, Bi) and cytokine (Bii) gene expression was then analyzed by qRT-PCR with the data presented as the mean+SEM of triplicate determinations. The results are representative of 2 independent experiments (*p<0.05, **p<0.001; one way ANOVA followed by Bonferroni t-test).

CD4+CD25− T cells [3] = test: [3H]thymidine proliferation assay of CD4+CD25− T cells; assay type: cell-based, mouse
Protocol: Proliferation assays. T cell-depleted splenocytes (Tds) were obtained by negative selection with murine anti-CD4 and anti-CD8 microbeads (Miltenyi Biotec). Isolated CD4^+CD25^− T cells (5×10^4/well) were cultured in 96-well plates (Costar) with irradiated Tds (5×10^4/well) (2600 rad) in the presence or absence of soluble anti-CD3 mAb (0.7 μg/ml) (R&D Systems, Minneapolis, Minn.). DP (100 μM), IBMX (300 μM) or vehicle control (0.1% DMSO in media) were added at 0 hours. After 48 hours, 2 μCi per well of [^3H]thymidine (NEN, Waltham, Mass.) was added and cells were harvested 16 hours later using a semiautomated cell harvester and [^3H]thymidine incorporation determined by scintillation counting. Cell viability in suppression assays was determined using trypan blue (2.5%) at 64 hours of incubation.
In FIG. 22, purified CREM/ICER^+/+ or CREM/ICER^−/− derived CD4^+CD25^−T cells (5×10^4/well) were cocultured with irradiated T cell depleted splenocytes (5×10^4 well) presenting soluble anti-CD3 mAb (0.75 μg/ml) and the cultures were incubated with IBMX (300 μM), DP (100 μM), or vehicle (media) for 64 hours with [3H]thymidine added for the final 16 hours. The extent of proliferation was determined by [3H]thymidine incorporation at 64 hours and the data are presented as the mean cpm+SEM of an experiment run in triplicate. The results are representative of 2 independent experiments. […] (*p<0.05, **p<0.001; comparisons to vehicle were analyzed using a one way ANOVA followed by Bonferroni t-test and using an unpaired t-test for comparisons between DP and IBMX).

[4] = system: Con A-activated splenocytes on TNF-α activated bEnd.3 endothelial cells; test: T cell-endothelial cell adhesion assay (Example 13); assay type: cell-based, mouse
Protocol: Cell treatment. Confluent bEnd.3 monolayers were incubated with 200 ng/ml TNF-α (Peprotech, Rocky Hill, N.J.) at 37° c. for 2 hours. […] Christoff Zitt and Armin Hatzelmann (Altana Pharma, Konstanz, Germany). Con A-activated splenocytes or CD4^+CD25^− T cells activated with plate-bound anti-CD3 mAb were treated with the same reagents for 20, 45, or 90 minutes.
Adhesion assays. Adhesion assays were performed in 24-well plates with a confluent layer of bEnd.3 cells. Splenocytes or CD4^+CD25^− T cells were labeled with 5 μM Calcein AM (Molecular Probes, Eugene, Oreg.) and treated as described above. 7×10^5 pretreated splenocytes or CD4^+CD25^− T cells per well were incubated on bEnd.3 cells in RPMI media. After 30 minutes at 37° C., non-adherent cells were removed by washing with D-PBS. For analysis, 7×10^5 Calcein AM labeled splenocytes or CD4^+CD25^− T cells were used as positive controls. Fluorescence was read in a Victor 3v microplate reader (Perkin Elmer, Waltham, Mass.) with a fluorescein filter set. The percentage of adherent T cells, i.e. labeled cells resistant to detachment, was calculated as total fluorescence of well divided by fluorescence of 7×10^5 Calcein AM labeled cells multiplied by 100.
In FIGS. 20A-20B, splenocytes from C57BL/6 mice were activated with Con A (3 μg/ml) for 48 hours followed by a 45 minute incubation with (A) IBMX (300 μM), piclamilast (Picl, 1 μM) or DP (100 μM), (B) dibutryl cAMP (Db-cAMP, 500 μM) or DP in the presence or absence of adenosine deaminase (AD, 1 U/ml) or vehicle (0.1% DMSO). bEnd.3 endothelial cells were activated for 2 hours with TNF-α (200 ng/ml) and incubated with the same reagents for the final 45 minutes before splenocytes were added to the bEnd.3 cells for the adhesion assay. The data are presented as the mean±SEM percentage of splenocytes which were resistant to detachment. Results are representative of at least three independent experiments run in triplicate (*p<0.05, **p<0.001; one way ANOVA followed by Bonferroni t-test).

[5] = 64 hours, DP 100 μM, IBMX 300 μM

Sequence of Y748F mutant of PDE8A catalytic domain (O60658 480-820 Y748F limits assumed): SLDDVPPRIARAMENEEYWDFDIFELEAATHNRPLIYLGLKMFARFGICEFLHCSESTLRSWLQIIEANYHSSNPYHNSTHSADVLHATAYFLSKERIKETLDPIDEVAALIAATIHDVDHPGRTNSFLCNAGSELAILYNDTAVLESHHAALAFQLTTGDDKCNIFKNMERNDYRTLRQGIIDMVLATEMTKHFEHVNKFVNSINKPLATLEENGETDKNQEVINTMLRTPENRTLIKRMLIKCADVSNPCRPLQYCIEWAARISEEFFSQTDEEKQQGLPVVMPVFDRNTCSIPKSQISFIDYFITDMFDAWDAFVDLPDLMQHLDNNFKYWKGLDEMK

In the case of `OCCN(CCO)c1nc(N2CCCCC2)c2nc(N(CCO)CCO)nc(N3CCCCC3)c2n1` [Dipyridamole, 2,2′,2″,2′″-(4,8-di(piperidin-1-yl)pyrimido[5,4-d]pyrimidine-2,6-diyl)bis(azanetriyl)tetraethanol], the IC50 [1] is given as roughly 4.1 µM, the “changes in PDE gene expression” value (CD4+CD25− T cells [2]; DP 100 μM) is given as “No significant changes” and the “decrease of IL-2 gene expression” value (CD4+CD25− T cells [2]; 90 minutes, DP 100 μM) is given as 2 fold. For the same compound, the “decrease of TNF-α gene expression” value (CD4+CD25− T cells [2]; 90 minutes, DP 100 μM) was 3 fold, the “increase of PDE4B gene expression” value (CD4+CD25− T cells [2]; 90 minutes, DP 100 μM) was 8 fold and the “PDE3B, 7A, and 8A expression” value (CD4+CD25− T cells [2]) was “unchanged”. The “T cell proliferation ([3H]thymidine incorporation)” value (CD4+CD25− T cells [3]; [5]) was “potently suppressed”, the “inhibition of proliferation, DP compared with IBMX” value (CD4+CD25− T cells [3]; 64 hours, DP 100 μM, IBMX 300 μM, listed as DP) was “more potently than IBMX; also recorded: greater” and the “effect of Crem gene deletion (CREM/ICER−/− T cells) on DP mediated suppression of proliferation” value (CD4+CD25− T cells [3]; DP 100 μM) was “did not affect”. The “viability of T cells” value (CD4+CD25− T cells [3]; trypan blue at 64 hours, DP treatment) was “not affected” and the “reduction of adhesion of T cells” value ([4]; short term, activated endothelial cells (discussion)) was 65%.
For `CC(C)Cn1c(=O)n(C)c(=O)c2[nH]cnc21` [IBMX, 3-isobutyl-1-methylxanthine], the “sensitivity of Tyr748-to-phenylalanine mutant to inhibition” value [1] is given as “restores sensitivity”, the “changes in PDE gene expression” value (CD4+CD25− T cells [2]; DP 100 μM) is given as “No significant changes” and the “increase of PDE4B gene expression” value (CD4+CD25− T cells [2]; 90 minutes, DP 100 μM) is given as 5 fold. For the same compound, the “PDE3B, 7A, and 8A expression” value (CD4+CD25− T cells [2]) was “unchanged”, the “T cell proliferation ([3H]thymidine incorporation)” value (CD4+CD25− T cells [3]; [5]) was “potently suppressed” and the “ability to reduce adhesion of activated T cells to endothelial cells” value ([4]; 45 minute incubation, IBMX 300 μM, piclamilast 1 μM, motapizone 1 μM) was “neither”.
